This note sets out measurements from US7718688B2, “Nitrobenzindoles and their use in cancer therapy” (Auckland Uniservices Limited, priority 2004, dated 2010).

Where a name gives a salt, the structure may show the parent alone.

Data set [1] deals with SKOV3: human ovarian carcinoma cell line. Briefly: Proliferation IC50 assay, oxic/hypoxic, SKOV3. The data set is classed as cell-based. To be noted: for IC50: Homo sapiens, SK-OV-3, 4 h exposure under aerobic conditions; for HCR (hypoxic cytotoxicity ratio) SKOV3: IC50(aerobic)/IC10(hypoxic); for HCR SKOV3: IC50(aerobic)/IC50(hypoxic).
The test system of data set [2] is HT29: human colon cancer cell line. Briefly: Proliferation IC50 assay, oxic/hypoxic, HT29. The class given is cell-based. To be noted: for IC50: Homo sapiens, HT-29, 4 h exposure under aerobic conditions; for HCR (hypoxic cytotoxicity ratio) HT29: IC50(aerobic)/IC10(hypoxic); for HCR HT29: IC50(aerobic)/IC50(hypoxic).

`COC(=O)c1ccc2c3c(cc([N+](=O)[O-])c2c1)N(C(=O)c1cc2cc(OC)c(OC)c(OC)c2[nH]1)CC3CCl` (stereo not shown) [Compound 13, Methyl 1-(chloromethyl)-3-(5,6,7-trimethoxyindol-2-carbonyl)-5-nitro-1,2-dihydro-3H-benzo[e]indole-7-carboxylate] displayed a melting point of 256 to 257 °C. Also, in data set [1] (Table 3), it took 1100 nM to reach half-maximal inhibition (IC50) and the “HCR (hypoxic cytotoxicity ratio) SKOV3” value was determined as 4.0. Also, in data set [2] (Table 3), inhibition was half-maximal at 1900 nM (IC50) and the “HCR (hypoxic cytotoxicity ratio) HT29” value stood at 3.2.
`CN(C)CCOc1ccc2[nH]c(C(=O)N3CC(CCl)c4c3cc([N+](=O)[O-])c3ccc(S(C)(=O)=O)cc43)cc2c1` (stereo not shown) (as salt: HCl) [Compound 47, 1-(Chloromethyl)-3-{5-[2-(dimethylamino)ethoxy]indol-2-carbonyl}-8-(methylsulfonyl)-5-nitro-1,2-dihydro-3H-benzo[e]indole] returned a melting point of over 300 °C.
The compound `COc1cc2cc(C(=O)N3CC(CCl)c4c3cc([N+](=O)[O-])c3c(C(C)=O)cccc43)[nH]c2c(OC)c1OC` (stereo not shown) [Compound 3, 6-Acetyl-1-(chloromethyl)-5-nitro-3-(5,6,7-trimethoxyindol-2-carbonyl)-1,2-dihydro-3H-benzo[e]indole] displayed a melting point of 180 to 183 °C. In data set [1] (Table 3), half-maximal inhibition (IC50) required 500 nM and the “HCR (hypoxic cytotoxicity ratio) SKOV3” value amounted to 3.4. Moreover, in data set [2] (Table 3), the 50% inhibitory concentration (IC50) was found to be 680 nM and the “HCR (hypoxic cytotoxicity ratio) HT29” value is listed as 2.0.
For the compound `CN(C)CCOc1ccc2[nH]c(C(=O)N3CC(CCl)c4c3cc(N)c3cc(C#N)ccc43)cc2c1` (stereo not shown) [Compound 56, 5-Amino-1-(chloromethyl)-3-{5-[2-(dimethylamino)ethoxy]indol-2-carbonyl}-1,2-dihydro-3H-benzo[e]indole-7-carbonitrile], the melting point is 250 to 255 °C (dec.). In data set [1] (Table 4), the IC50 turned out to be 13 nM and the “HCR SKOV3” value is 1.1. For the same compound, in data set [2] (Table 4), inhibition was half-maximal at 17 nM (IC50) and the “HCR HT29” value is given as 2.0.
With `COc1ccc(/C=C/C(=O)N2CC(CCl)c3c2cc([N+](=O)[O-])c2cc(S(N)(=O)=O)ccc32)cc1O` (stereo not shown) [Compound 27, 1-(Chloromethyl)-3-[(2E)-3-(3-hydroxy-4-methoxyphenyl)-2-propenoyl]-5-nitro-1,2-dihydro-3H-benzo[e]indole-7-sulfonamide], the melting point is 220 to 225 °C. For the same compound, in data set [1] (Table 3), the midpoint of inhibition, the IC50, lay at 13000 nM and the “HCR (hypoxic cytotoxicity ratio) SKOV3” value was determined as 31. In data set [2] (Table 3), the IC50 was found to be 2400 nM and the “HCR (hypoxic cytotoxicity ratio) HT29” value turned out to be 1.8.
The compound `COc1cc2cc(C(=O)N3CC(CCl)c4c3cc([N+](=O)[O-])c3cc(S(=O)(=O)NCCOP(=O)(O)O)ccc43)[nH]c2c(OC)c1OC` (stereo not shown) gave a melting point of 228 to 232 °C.
Compound `COc1ccc(/C=C/C(=O)N2CC(CCl)c3c2cc([N+](=O)[O-])c2cc(C(=O)NCCO)ccc32)cc1` (stereo not shown) [Compound 18, 1-(Chloromethyl)-N-(2-hydroxyethyl)-3-[(E)-4-methoxycinnamoyl]-5-nitro-1,2-dihydro-3H-benzo[e]indole7-carboxamide] yielded a melting point of 240 to 241 °C. Further, in data set [1] (Table 3), the IC50 came to 4800 nM and the “HCR (hypoxic cytotoxicity ratio) SKOV3” value is 4.7. For the same compound, in data set [2] (Table 3), the IC50 came to 4400 nM and the “HCR (hypoxic cytotoxicity ratio) HT29” value was 4.4.
Take `CN(C)CCOc1ccc2[nH]c(C(=O)N3CC(CCl)c4c3cc([N+](=O)[O-])c3ccc(C(N)=O)cc43)cc2c1` (stereo not shown) (as salt: TFA) [Compound 43, 1-(Chloromethyl)-3-{5-[2-(dimethylamino)ethoxy]indol-2-carbonyl}-5-nitro-1,2-dihydro-3H-benzo[e]indole-8-carboxamide]: the melting point is over 320 °C.
As to `CN(C)CCOc1ccc2[nH]c(C(=O)N3CC(CCl)c4c3cc([N+](=O)[O-])c3cccc([N+](=O)[O-])c43)cc2c1` (stereo not shown) (as salt: HCl) [Compound 52, 1-(Chloromethyl)-3-{5-[2-(dimethylamino)ethoxy]indol-2-carbonyl}-5,9-dinitro-1,2-dihydro-3H-benzo[e]indole], the melting point was 187 to 191 °C.
As for `CNS(=O)(=O)c1ccc2c3c(cc(N)c2c1)N(C(=O)c1cc2cc(OCCN(C)C)ccc2[nH]1)CC3CCl` (stereo not shown) [Compound 61, 5-Amino-1-(chloromethyl)-3-{5-[2-(dimethylamino)ethoxy]indol-2-carbonyl}-N-methyl-1,2-dihydro-3H-benzo[e]indole-7-sulfonamide], the melting point was 260 to 265 °C (dec.). Further, in data set [1] (Table 4), the IC50 was determined as 20 nM and the “HCR SKOV3” value is reported as 1.8. In data set [2] (Table 4), the IC50 came out at 24 nM and the “HCR HT29” value stood at 1.2.
For the compound `CN(C)CCOc1ccc2[nH]c(C(=O)N3CC(CCl)c4c3cc(N)c3cc(S(N)(=O)=O)ccc43)cc2c1` (stereo not shown) [Compound 60, 5-Amino-1-(chloromethyl)-3-{5-[2-(dimethylamino)ethoxy]indol-2-carbonyl}-1,2-dihydro-3H-benzo[e]indole-7-sulfonamide], the melting point is 260 to 266 °C (dec.). Moreover, in data set [1] (Table 4), half-maximal inhibition (IC50) required 23 nM and the “HCR SKOV3” value is 1.4. Further, in data set [2] (Table 4), half-maximal inhibition (IC50) required 35 nM and the “HCR HT29” value came to 1.8.
`COc1cc2cc(C(=O)N3CC(CCl)c4c3cc([N+](=O)[O-])c3cc(C(=O)NCCO)ccc43)[nH]c2c(OC)c1OC` (stereo not shown) [Compound 17, 1-(Chloromethyl)-N-(2-hydroxyethyl)-5-nitro-3-(5,6,7-trimethoxyindol-2-carbonyl)-1,2-dihydro-3H-benzo[e]-indole-7-carboxamide] showed a melting point of 244 to 245 °C. In data set [2] (Table 3), the IC50 worked out at 5700 nM and the “HCR (hypoxic cytotoxicity ratio) HT29” value was determined as 1.7.
With `COc1cc2cc(C(=O)N3CC(CCl)c4c3cc([N+](=O)[O-])c3ccc(C(=O)NCCN(C)C)cc43)[nH]c2c(OC)c1OC` (stereo not shown) (as salt: HCl) [Compound 44, 1-(Chloromethyl)-N-[2-(dimethylamino)ethyl]-5-nitro-3-(5,6,7-trimethoxyindol-2-carbonyl)-1,2-dihydro-3H-benzo[e]indole-8-carboxamide], the melting point was 228 to 229 °C (dec.).
The same measure, in the same setting: the value for `CN(C)CCOc1ccc2[nH]c(C(=O)N3CC(CCl)c4c3cc([N+](=O)[O-])c3c([N+](=O)[O-])cccc43)cc2c1` (stereo not shown) (as salt: HCl) [Compound 2, 1-(Chloromethyl)-3-(5-[2-(dimethylamino)ethoxy]indol-2-carbonyl)-5,6-dinitro-1,2-dihydro-3H-benzo[e]indole] was 225 to 226 °C.
In the case of `COc1cc2cc(C(=O)N3CC(CCl)c4c3cc([N+](=O)[O-])c3cc(S(=O)(=O)NCCO)ccc43)[nH]c2c(OC)c1OC` (stereo not shown) [Compound 33, 1-(Chloromethyl)-N-(2-hydroxyethyl)-5-nitro-3-(5,6,7-trimethoxyindol-2-carbonyl)-1,2-dihydro-3H-benzo[e]indole-7-sulfonamide], the melting point fell in the range of 257 to 258 °C. Moreover, in data set [1] (Table 3), inhibition was half-maximal at 13000 nM (IC50) and the “HCR (hypoxic cytotoxicity ratio) SKOV3” value was 5.8.
As to `CCC(=O)NS(=O)(=O)c1ccc2c3c(cc([N+](=O)[O-])c2c1)N(C(=O)c1cc2cc(OCCN(C)C)ccc2[nH]1)CC3CCl` (stereo not shown), the melting point was 221 to 225 °C.
Same read-out and setting: the value for `CN(C)CCOc1ccc2[nH]c(C(=O)N3CC(CCl)c4c3cc([N+](=O)[O-])c3cc(S(=O)(=O)N(C)C)ccc43)cc2c1` (stereo not shown) (as salt: HCl) [Compound 38, 1-(Chloromethyl)-3-{5-[2-(dimethylamino)ethoxy]indol-2-carbonyl}-N,N-dimethyl-5-nitro-1,2-dihydro-3H-benzo[e]indole-7-sulfonamide] was over 350 °C; that for `CN(C)CCOc1ccc2[nH]c(C(=O)N3CC(CCl)c4c3cc([N+](=O)[O-])c3cc(C(=O)NCCO)ccc43)cc2c1` (stereo not shown) (as salt: HCl) [Compound 19, 1-(Chloromethyl)-3-(5-[2-(dimethylamino)ethoxy]indol-2-carbonyl)-N-(2-hydroxyethyl)-5-nitro-1,2-dihydro-3H-benzo[e]indole-7-carboxamide] was 231 to 233 °C (dec.).
For `CN(C)CCOc1ccc2[nH]c(C(=O)N3CC(CCl)c4c3cc([N+](=O)[O-])c3cc(S(N)(=O)=O)ccc43)cc2c1` (stereo not shown) (as salt: HCl) [Compound 26, 1-(Chloromethyl)-3-{5-[2-(dimethylamino)ethoxy]indol-2-carbonyl}-5-nitro-1,2-dihydro-3H-benzo[e]indole-7-sulfonamide], the melting point is over 350 °C.
Still for that read-out and setting: the result for `COC(=O)c1ccc2c3c(cc([N+](=O)[O-])c2c1)N(C(=O)c1cc2cc(OCCN(C)C)ccc2[nH]1)CC3CCl` (stereo not shown) (as salt: HCl) [Compound 14, Methyl 1-(chloromethyl)-3-{5-[2-(dimethylamino)ethoxy]indol-2-carbonyl}-5-nitro-1,2-dihydro-3H-benzo[e]indole-7-carboxylate] reads over 300 °C.
For `NS(=O)(=O)c1ccc2c3c(cc([N+](=O)[O-])c2c1)N(C(=O)c1cc2cc(OCCOP(=O)(O)O)ccc2[nH]1)CC3CCl` (stereo not shown), the melting point was 207 to 211 °C.
As to `CN(C)CCOc1ccc2[nH]c(C(=O)N3CC(CCl)c4c3cc([N+](=O)[O-])c3cc(S(C)(=O)=O)ccc43)cc2c1` (stereo not shown) (as salt: HCl) [Compound 24, 1-(Chloromethyl)-3-{5-[2-(dimethylamino)ethoxy]indol-2-carbonyl}-7-(methylsulfonyl)-5-nitro-1,2-dihydro-3H-benzo[e]indole], the melting point was 250 to 252 °C.
The compound `CN(C)CCOc1ccc2[nH]c(C(=O)N3CC(CCl)c4c3cc([N+](=O)[O-])c3cc([N+](=O)[O-])ccc43)cc2c1` (stereo not shown) (as salt: HCl) [Compound 9, 1-(Chloromethyl)-3-{5-[2-(dimethylamino)ethoxy]indol-2-carbonyl}-5,7-dinitro-1,2-dihydro-3H-benzo[e]indole] came in with a melting point of 263 to 264 °C.

As a reminder, the IC50 is the concentration that inhibits the measured activity by half. Lower therefore signals greater potency. The melting point is the temperature of the solid-liquid transition.
